Data set [1] deals with Mus musculus. In words: Antipsychotic activity in ip dosed mouse administered 15 mins prior to testing by SmartCube automated system based method. The data set is classed as functional. Particulars: Mus musculus, ip; read-out: MED.
Data set [2] deals with Mus musculus. In words: Antipsychotic activity in mouse at 30 mg/kg, ip administered 15 mins prior to testing by SmartCube automated system based method relative to standard compound. In kind it is functional.
For data set [3], the target named is D(2) dopamine receptor (Homo sapiens) (UniProt P14416). In words: Displacement of [3H]methyl-spiperone from human recombinant D2 receptor expressed in HEK293 cells at 10 uM after 60 mins by scintillation counting analysis. In kind it is cell-based. Background: In a radioligand displacement assay an active substance lowers the binding of a labelled ligand.
D(2) dopamine receptor (Homo sapiens), sequence (P14416 whole entry): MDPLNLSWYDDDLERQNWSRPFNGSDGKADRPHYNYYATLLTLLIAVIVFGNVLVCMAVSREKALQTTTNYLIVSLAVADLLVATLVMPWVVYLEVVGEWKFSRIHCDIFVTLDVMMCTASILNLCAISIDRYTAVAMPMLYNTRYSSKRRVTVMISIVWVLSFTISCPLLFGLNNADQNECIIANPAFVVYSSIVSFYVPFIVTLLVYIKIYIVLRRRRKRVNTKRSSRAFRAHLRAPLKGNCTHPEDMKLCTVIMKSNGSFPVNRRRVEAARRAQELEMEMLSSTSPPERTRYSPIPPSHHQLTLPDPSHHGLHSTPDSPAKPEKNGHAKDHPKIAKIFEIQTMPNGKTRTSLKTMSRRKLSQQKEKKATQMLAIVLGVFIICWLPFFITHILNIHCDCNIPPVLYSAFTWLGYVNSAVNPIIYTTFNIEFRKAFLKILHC
Another data set concerns the target CYP1A (Homo sapiens, UniProt P04798+P05177). In words: Inhibition of CYP1A in human liver microsomes assessed as reduction in ethoxyresorufin o-deethylation by fluorescence assay. Particulars: probe ethoxyresorufin (O-deethylation).
Another data set deals with Cytochrome P450 2C19 (Homo sapiens, UniProt P33261). In words: Inhibition of CYP2C19 in human liver microsomes assessed as reduction in S-mephenytoin 4-hydroxylation by LC-MS/MS analysis. The data set is classed as ADME.
The next data set has as its target Cytochrome P450 2C9 (Homo sapiens, UniProt P11712). In words: Inhibition of CYP2C9 in human liver microsomes assessed as reduction in tolbutamide 4-hydroxylation by LC-MS/MS analysis. In kind it is ADME. On the technique in general: Microsomes from liver hold many membrane-bound enzymes, among them those of drug oxidation.
The target of another data set is Cytochrome P450 2D6 (Homo sapiens, UniProt P10635). In words: Inhibition of CYP2D6 in human liver microsomes assessed as reduction in dextromethorphan o-demethylation by LC-MS/MS analysis. In kind it is ADME.
Cytochrome P450 2D6, sequence (P10635 whole entry): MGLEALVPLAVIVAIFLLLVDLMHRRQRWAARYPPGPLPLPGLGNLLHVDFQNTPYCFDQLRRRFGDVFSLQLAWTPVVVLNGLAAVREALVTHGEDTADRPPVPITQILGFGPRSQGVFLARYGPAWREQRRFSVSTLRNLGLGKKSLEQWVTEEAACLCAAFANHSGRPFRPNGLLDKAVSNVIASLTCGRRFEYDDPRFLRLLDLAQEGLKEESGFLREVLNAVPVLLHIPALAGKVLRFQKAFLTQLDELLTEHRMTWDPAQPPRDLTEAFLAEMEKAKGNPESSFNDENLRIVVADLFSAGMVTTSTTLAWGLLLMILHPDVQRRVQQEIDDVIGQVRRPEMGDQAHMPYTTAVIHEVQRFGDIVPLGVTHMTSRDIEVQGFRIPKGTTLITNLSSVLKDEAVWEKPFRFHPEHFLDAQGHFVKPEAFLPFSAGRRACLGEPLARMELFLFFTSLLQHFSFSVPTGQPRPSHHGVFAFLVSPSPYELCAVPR
A further data set deals with Cytochrome P450 3A4 (Homo sapiens, UniProt P08684). In words: Inhibition of CYP3A4 in human liver microsomes assessed as reduction in midazolam 1-hydroxylation/testosterone 6beta-hydroxylation by LC-MS/MS analysis. The data set is classed as ADME.
The nature of data set [4]: Half life in human liver microsomes at 3 uM in presence of NADPH by LC-MS/MS analysis. The data set is classed as ADME.
A short description of data set [5]: Half life in mouse liver microsomes at 3 uM in presence of NADPH by LC-MS/MS analysis. The data set is classed as ADME.
Data set [6] is described as follows: Half life in rat liver microsomes at 3 uM in presence of NADPH by LC-MS/MS analysis. In kind it is ADME.
Data set [7] can be described thus: Chemical stability of the compound in 0.01 M HCl at pH 2 after 96 hrs by HPLC analysis. In kind it is physicochemical. The note with it: buffer, pH 2, 96 h.
The nature of data set [8]: Chemical stability of the compound in 20 mM NH4Ac buffer solution at pH 7.1 after 96 hrs by HPLC analysis. In kind it is physicochemical. Particulars: pH 7.1, 96 h.
For data set [9], the system named is Mus musculus. In words: Antipsychotic activity in mouse at 10 mg/kg, ip administered 15 mins prior to testing by SmartCube automated system based method relative to standard compound. The data set is classed as functional, organism-based.
Data set [10] addresses Adrenergic receptor alpha-1 (Rattus norvegicus) (UniProt P15823+P23944+P43140). In words: Displacement of [3H]prazosin from rat cerebral cortex adrenergic alpha1 receptor at 10 uM after 60 mins by scintillation counting analysis. The data set is classed as tissue-based.
Data set [11] addresses Adrenergic receptor alpha-2 (Rattus norvegicus) (UniProt P22086+P19328+P22909). In words: Displacement of [3H]RX 821002 from rat cerebral cortex adrenergic alpha2 receptor at 10 uM after 60 mins by scintillation counting analysis. In kind it is tissue-based.
In data set [12] the target is D(1A) dopamine receptor (Homo sapiens) (UniProt P21728). In words: Displacement of [3H]SCH 23390 from human recombinant D1 receptor expressed in CHO cells at 10 uM after 60 mins by scintillation counting analysis. In kind it is cell-based.
Data set [13] has as its target T1, 5-hydroxytryptamine receptor 2A (Homo sapiens, UniProt P28223). In words: Displacement of [3H]ketanserin from human recombinant 5-HT2A receptor expressed in HEK293 cells at 10 uM after 60 mins by scintillation counting analysis. In kind it is cell-based.
For data set [14], the target named is 5-hydroxytryptamine receptor 2B (Homo sapiens) (UniProt P41595). In words: Displacement of [3H]mesulergine from human recombinant 5-HT2B receptor expressed in CHO cells at 10 uM after 60 mins by scintillation counting analysis. The data set is classed as cell-based.
5-hydroxytryptamine receptor 2B (Homo sapiens), sequence (P41595 whole entry): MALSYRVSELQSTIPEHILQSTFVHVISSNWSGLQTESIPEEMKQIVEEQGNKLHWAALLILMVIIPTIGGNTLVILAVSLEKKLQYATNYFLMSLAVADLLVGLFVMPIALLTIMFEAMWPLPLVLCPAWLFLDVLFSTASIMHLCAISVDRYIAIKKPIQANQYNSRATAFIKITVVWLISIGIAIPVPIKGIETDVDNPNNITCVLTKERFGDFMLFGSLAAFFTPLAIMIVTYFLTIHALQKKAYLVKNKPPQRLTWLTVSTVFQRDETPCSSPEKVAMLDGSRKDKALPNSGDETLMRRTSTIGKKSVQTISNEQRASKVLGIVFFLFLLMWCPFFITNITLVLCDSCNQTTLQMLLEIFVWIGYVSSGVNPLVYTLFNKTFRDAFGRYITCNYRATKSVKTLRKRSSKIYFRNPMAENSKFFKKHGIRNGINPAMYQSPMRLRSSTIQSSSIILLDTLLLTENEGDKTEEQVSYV
The target in data set [15] is 5-hydroxytryptamine receptor 3A (Homo sapiens) (UniProt P46098). In words: Displacement of [3H]BRL 43694 from human recombinant 5-HT3 receptor expressed in CHO cells at 10 uM after 120 mins by scintillation counting analysis. In kind it is cell-based.
5-hydroxytryptamine receptor 3A (Homo sapiens), sequence (P46098 whole entry): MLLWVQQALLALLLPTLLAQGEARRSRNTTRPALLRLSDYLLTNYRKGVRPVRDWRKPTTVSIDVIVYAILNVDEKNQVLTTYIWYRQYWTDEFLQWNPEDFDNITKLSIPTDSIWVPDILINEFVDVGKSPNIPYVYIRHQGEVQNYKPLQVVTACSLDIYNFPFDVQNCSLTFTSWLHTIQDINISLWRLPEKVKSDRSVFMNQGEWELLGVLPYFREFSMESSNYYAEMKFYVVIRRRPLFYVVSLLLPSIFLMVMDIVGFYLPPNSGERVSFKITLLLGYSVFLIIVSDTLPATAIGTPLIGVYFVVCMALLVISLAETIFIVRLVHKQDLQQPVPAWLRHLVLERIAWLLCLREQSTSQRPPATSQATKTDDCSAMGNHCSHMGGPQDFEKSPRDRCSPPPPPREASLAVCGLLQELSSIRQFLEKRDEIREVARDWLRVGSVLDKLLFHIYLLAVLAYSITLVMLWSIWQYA
Data set [16] deals with 5-hydroxytryptamine receptor 6 (Homo sapiens) (UniProt P50406). In words: Displacement of [3H]LSD from human recombinant 5-HT6 receptor expressed in CHO cells at 10 uM after 120 mins by scintillation counting analysis. In kind it is cell-based.
5-hydroxytryptamine receptor 6 (Homo sapiens), sequence (P50406 whole entry): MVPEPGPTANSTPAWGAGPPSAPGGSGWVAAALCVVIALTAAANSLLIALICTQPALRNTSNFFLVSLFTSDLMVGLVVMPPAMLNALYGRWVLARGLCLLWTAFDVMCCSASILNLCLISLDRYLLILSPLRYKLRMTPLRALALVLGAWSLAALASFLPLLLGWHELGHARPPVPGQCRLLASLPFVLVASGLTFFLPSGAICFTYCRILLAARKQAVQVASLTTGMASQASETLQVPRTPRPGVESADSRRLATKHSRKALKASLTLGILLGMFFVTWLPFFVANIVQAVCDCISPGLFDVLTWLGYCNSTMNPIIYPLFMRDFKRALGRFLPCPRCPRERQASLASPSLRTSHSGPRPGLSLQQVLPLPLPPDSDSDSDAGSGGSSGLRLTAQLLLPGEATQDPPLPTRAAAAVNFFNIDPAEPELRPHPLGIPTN
Data set [17] concerns the target 5-hydroxytryptamine receptor 7 (Homo sapiens) (UniProt P34969). In words: Displacement of [3H]LSD from human recombinant 5-HT7 receptor expressed in CHO cells at 10 uM after 120 mins by scintillation counting analysis. In kind it is cell-based.
The target in data set [18] is Histamine H1 receptor (Homo sapiens) (UniProt P35367). In words: Displacement of [3H]pyrilamine from human recombinant H1 receptor expressed in HEK293 cells at 10 uM after 60 mins by scintillation counting analysis. In kind it is cell-based.
Histamine H1 receptor (Homo sapiens), sequence (P35367 whole entry): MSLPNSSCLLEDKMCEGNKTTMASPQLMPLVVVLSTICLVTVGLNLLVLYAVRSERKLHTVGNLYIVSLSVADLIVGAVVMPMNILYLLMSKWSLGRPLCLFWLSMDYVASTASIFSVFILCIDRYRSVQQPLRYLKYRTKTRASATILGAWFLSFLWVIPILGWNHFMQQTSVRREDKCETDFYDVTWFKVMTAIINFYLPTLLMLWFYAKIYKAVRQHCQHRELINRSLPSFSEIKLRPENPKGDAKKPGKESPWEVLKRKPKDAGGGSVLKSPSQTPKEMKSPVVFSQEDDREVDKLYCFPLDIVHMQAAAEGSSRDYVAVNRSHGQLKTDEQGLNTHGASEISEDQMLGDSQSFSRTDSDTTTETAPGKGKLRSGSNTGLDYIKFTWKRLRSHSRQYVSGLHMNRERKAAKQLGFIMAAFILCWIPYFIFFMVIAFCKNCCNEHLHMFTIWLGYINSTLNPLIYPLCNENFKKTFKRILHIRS
Data set [19] addresses Sodium-dependent serotonin transporter (Homo sapiens) (UniProt P31645). In words: Displacement of [3H]imipramine from human recombinant 5-HT transporter expressed in CHO cells at 10 uM after 60 mins by scintillation counting analysis. The data set is classed as cell-based.
The target of data set [20] is Sodium-dependent dopamine transporter (Homo sapiens) (UniProt Q01959). In words: Displacement of [3H]BTCP from human recombinant dopamine transporter expressed in CHO cells at 10 uM after 120 mins by scintillation counting analysis. The data set is classed as cell-based.
Data set [21] addresses Sodium-dependent noradrenaline transporter (Homo sapiens) (UniProt P23975). In words: Displacement of [3H]nisoxetine from human recombinant norepinephrine transporter expressed in CHO cells at 10 uM after 120 mins by scintillation counting analysis. The data set is classed as cell-based.
Data set [22] concerns the target T1, 5-hydroxytryptamine receptor 2A. In words: Antagonist activity at 5HT2A (unknown origin).
Data set [23] deals with Voltage-gated inwardly rectifying potassium channel KCNH2 (Homo sapiens, UniProt Q12809). In words: Inhibition of human ERG. Particulars: human.
Data set [24] can be described thus: Solubility of the compound at pH 7.4. In kind it is physicochemical. The note with it: buffer.
A short description of data set [25]: Fraction unbound in human plasma at 5 uM by LC-MS/MS based equilibrium dialysis method. The data set is classed as ADME, cell-free. A general note: In equilibrium dialysis free small molecules cross a membrane that holds back macromolecules.
A short description of data set [26]: Fraction unbound in mouse plasma at 5 uM by LC-MS/MS based equilibrium dialysis method. The data set is classed as ADME, cell-free.
For data set [27], the system named is Mus musculus. In words: Antipsychotic-like activity in C57Bl/6J mouse model of schizophrenia assessed as reversal of phencyclidine-induced locomotor activity at 3 to 30 mg/kg, po dosed 30 mins before administration of PCP measured for 60 mins by open field test. In kind it is functional, organism-based.
The test system of data set [28] is Mus musculus. In words: Effect on basal locomotor activity in C57Bl/6J mouse at 10 to 30 mg/kg, po. In kind it is ADME, organism-based. The note with it: in vivo.
The subject of data set [29] is Mus musculus. In words: Antipsychotic activity in C57Bl/6J mouse model of schizophrenia assessed as increase in prepulse inhibition of acoustic startle at 3 to 10 mg/kg, po administered 30 mins prior to testing relative to vehicle-treated control. In kind it is functional, organism-based.
In data set [30] the test system is Mus musculus. In words: Effect on basal locomotor activity in C57Bl/6J mouse at 3 mg/kg, po. Particulars: in vivo. The data set is classed as ADME, organism-based.
A further data set concerns Liver microsome. In words: Drug metabolism in human liver microsomes assessed as formation of 4-(2-methylbenzo[b]thiophen-3-yl)pyrimidineat 3 uM in presence of NADPH by LC-MS/MS analysis. The data set is classed as ADME.
A short description of data set [31]: Drug metabolism in mouse liver microsomes assessed as formation of 4-(2-methylbenzo[b]thiophen-3-yl)pyrimidineat 3 uM in presence of NADPH by LC-MS/MS analysis. In kind it is ADME.
In data set [32] the target is D(2) dopamine receptor (Homo sapiens) (UniProt P14416). In words: Displacement of [3H]methyl-spiperone from human recombinant D2 receptor expressed in HEK293 cells at 30 uM after 60 mins by scintillation counting analysis. In kind it is cell-based.

Activity calls are given as the source filed them. The rule behind the calls is not given here.

T1 sequence (P28223 whole entry): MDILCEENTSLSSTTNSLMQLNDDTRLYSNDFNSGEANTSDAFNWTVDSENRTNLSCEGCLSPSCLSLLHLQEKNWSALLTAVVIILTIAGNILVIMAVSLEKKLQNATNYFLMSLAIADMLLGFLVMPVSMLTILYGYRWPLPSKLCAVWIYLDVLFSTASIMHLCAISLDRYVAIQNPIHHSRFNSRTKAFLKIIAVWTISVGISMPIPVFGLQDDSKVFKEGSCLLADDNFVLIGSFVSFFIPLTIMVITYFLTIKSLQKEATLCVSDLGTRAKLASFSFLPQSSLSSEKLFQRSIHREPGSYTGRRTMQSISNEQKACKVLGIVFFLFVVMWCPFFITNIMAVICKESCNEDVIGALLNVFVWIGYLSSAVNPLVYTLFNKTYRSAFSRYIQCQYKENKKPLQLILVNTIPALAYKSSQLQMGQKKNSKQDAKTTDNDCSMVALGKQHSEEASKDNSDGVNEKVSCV
Sodium-dependent noradrenaline transporter (Homo sapiens), sequence (P23975 whole entry): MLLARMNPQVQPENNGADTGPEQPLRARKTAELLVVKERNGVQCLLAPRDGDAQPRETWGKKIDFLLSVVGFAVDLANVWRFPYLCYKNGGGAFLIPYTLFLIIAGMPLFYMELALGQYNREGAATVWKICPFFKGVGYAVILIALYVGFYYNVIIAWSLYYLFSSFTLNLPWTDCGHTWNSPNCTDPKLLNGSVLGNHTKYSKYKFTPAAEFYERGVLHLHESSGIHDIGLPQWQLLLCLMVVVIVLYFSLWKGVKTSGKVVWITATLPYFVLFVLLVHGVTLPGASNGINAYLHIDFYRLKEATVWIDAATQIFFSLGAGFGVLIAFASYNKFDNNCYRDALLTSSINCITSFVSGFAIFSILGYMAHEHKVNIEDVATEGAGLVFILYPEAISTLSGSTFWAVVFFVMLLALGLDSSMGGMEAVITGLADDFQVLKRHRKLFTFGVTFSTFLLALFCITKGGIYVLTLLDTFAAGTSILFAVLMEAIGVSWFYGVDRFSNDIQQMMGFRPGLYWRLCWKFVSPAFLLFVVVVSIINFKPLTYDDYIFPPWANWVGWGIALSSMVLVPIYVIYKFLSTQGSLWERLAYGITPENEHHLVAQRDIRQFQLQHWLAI
Cytochrome P450 2C9, sequence (P11712 whole entry): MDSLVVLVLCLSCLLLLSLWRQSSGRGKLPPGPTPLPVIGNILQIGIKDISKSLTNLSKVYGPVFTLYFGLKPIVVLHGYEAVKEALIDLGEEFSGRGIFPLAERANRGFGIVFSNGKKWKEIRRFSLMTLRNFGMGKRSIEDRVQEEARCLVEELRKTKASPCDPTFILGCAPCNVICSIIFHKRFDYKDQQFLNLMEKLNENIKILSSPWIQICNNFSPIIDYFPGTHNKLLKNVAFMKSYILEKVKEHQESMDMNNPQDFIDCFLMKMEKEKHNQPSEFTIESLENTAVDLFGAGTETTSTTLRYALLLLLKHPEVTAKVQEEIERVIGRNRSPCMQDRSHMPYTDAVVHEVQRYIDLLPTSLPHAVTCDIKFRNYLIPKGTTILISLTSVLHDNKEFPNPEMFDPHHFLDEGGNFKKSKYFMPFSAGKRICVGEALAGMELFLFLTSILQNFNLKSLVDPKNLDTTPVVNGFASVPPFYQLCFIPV
5-hydroxytryptamine receptor 7 (Homo sapiens), sequence (P34969 whole entry): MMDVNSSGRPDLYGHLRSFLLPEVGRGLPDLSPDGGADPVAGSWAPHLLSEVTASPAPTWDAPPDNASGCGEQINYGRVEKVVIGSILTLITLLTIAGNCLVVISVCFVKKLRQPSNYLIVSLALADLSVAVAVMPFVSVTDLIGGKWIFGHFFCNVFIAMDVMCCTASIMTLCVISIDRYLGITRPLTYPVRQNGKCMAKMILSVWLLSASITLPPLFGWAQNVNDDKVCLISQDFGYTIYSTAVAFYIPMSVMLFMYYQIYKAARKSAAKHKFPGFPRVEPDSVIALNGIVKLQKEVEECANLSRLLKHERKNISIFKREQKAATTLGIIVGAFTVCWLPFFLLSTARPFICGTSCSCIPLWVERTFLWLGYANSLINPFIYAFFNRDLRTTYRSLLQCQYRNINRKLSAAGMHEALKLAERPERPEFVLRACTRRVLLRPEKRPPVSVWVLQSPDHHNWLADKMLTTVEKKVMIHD

As to `Cc1sc2c(Cl)cccc2c1C1C=CN=CN1.Cl` (configuration not stated), in the data set with Mus musculus [1], the minimal effective dose came to 30 mg/kg.
For `CCc1cc(Br)c(C2C=CN=CN2)s1.Cl` (configuration not stated), the minimal effective dose in the data set with Mus musculus [1] was 30 mg/kg.
Still for that read-out and setting: for `CC1=NC=CC(c2c(C)sc3ccccc23)N1.Cl` (configuration not stated) the value was 30 mg/kg.
With `CC1=CN=CNC1c1sc2ccccc2c1C` (configuration not stated), the result in the data set on Mus musculus [2] was Active.
On to `Cc1sc2cccc(F)c2c1C1C=CN=CN1.Cl` (configuration not stated), for which the minimal effective dose in the data set on Mus musculus [1] was determined as 3 mg/kg.
Take `Clc1c(C2C=CN=CN2)sc2ccccc12` (configuration not stated): the outcome in the data set on Mus musculus [2] was Active.
Consider `Cc1sc2c(F)cccc2c1C1C=CN=CN1.Cl` (configuration not stated), for which the minimal effective dose in the data set on Mus musculus [1] worked out at 10 mg/kg.
The same measure, in the same setting: the result for `Cc1sc2ccccc2c1C1NC(N)=NC=C1Cl.Cl` (configuration not stated) reads 30 mg/kg.
Take `Cc1sc2ccccc2c1[C@@H]1C=CN=CN1`: the result with Mus musculus [2], with Mus musculus [9], with Mus musculus [27] and in the data set on Mus musculus [29] was Active. The inhibition (usually the drop in the measured response relative to a control, in per cent) in data set [3] amounted to 0%; in data set [10], 88%; in data set [11], 97%; in data set [12] it was 77%; in data set [13] it was 99%; in [14] it was 81%. The inhibition in data set [15] was determined as 64%; in data set [16], 61%; in [17], 94%; in data set [18], 86%; in [19], 94%; in data set [20], 78%. In data set [21], the inhibition came out at 51%. The IC50 (in general, the midpoint of a concentration-inhibition curve) on CYP1A was found to be 6.9 µM; at Cytochrome P450 2C19, 25 µM; on Cytochrome P450 2C9 it was 6.9 µM; on Cytochrome P450 2D6 it was 3.1 µM; on Cytochrome P450 3A4, 11 µM; in data set [22] it was 0.356 µM. Also, the IC50 in [23] is above 25 µM. Also, the half-life – broadly, how long it takes for the measured level to halve – at 3 µM worked out at 2.28 h in [4], 4.03 h in data set [5] and 0.483 h in data set [6]. The Stability entry in [7] and in data set [8] was “Stable” each time. In addition, the solubility (as a rule, the dissolved amount per volume that the medium holds) in data set [24] was above 100 µg/mL. Besides, the fraction unbound (in general, free concentration divided by total concentration) at 5 µM worked out at 0.3 in data set [25] and 0.18 in data set [26]. Also, the Activity entry in the data set on Mus musculus [28] is on record as “Toxic”; in the data set on Mus musculus [30], “Non-toxic”. The Drug metabolism result (in the data set with Liver microsome; in data set [31]) was “metabolite_notdetected” each time.
For `Cc1csc(C2C=CN=CN2)c1C` (configuration not stated), the outcome with Mus musculus [2] was Active. Also, the inhibition in data set [32] turned out to be 18%.
Take `CC1=NC=C(Cl)C(c2sc3ccccc3c2C)N1` (configuration not stated): the result in the data set on Mus musculus [2] was Active.
Take `Cc1sc2ccccc2c1C1NC=Nc2cc(F)ccc21.Cl` (configuration not stated): the minimal effective dose in the data set on Mus musculus [1] was 30 mg/kg.
For `Brc1c(C2C=CN=CN2)sc2ccccc12` (configuration not stated), the outcome with Mus musculus [2] was Active.
`Cc1sc2ccccc2c1C1C=CN=CN1C.Cl` (configuration not stated): the minimal effective dose in the data set with Mus musculus [1] was determined as 30 mg/kg.
Still for that read-out and setting: the result for `Cc1sc2c(c1C1C=CN=CN1)CCC2.Cl` (configuration not stated) reads 10 mg/kg; that for `CC1=CN=CNC1c1c(C)sc2ccccc12.Cl` (configuration not stated), 30 mg/kg.

These data come from ChEMBL document CHEMBL3822388, “In vivo phenotypic drug discovery: applying a behavioral assay to the discovery and optimization of novel antipsychotic agents” (Medchemcomm, 2016).
